What was measured:
[1] = Solubility of compound; assay type: physicochemical
[2] = Inhibition of Thermoplasma acidophilum ATCC25905 recombinant Tricorn protease-interacting factor F3 E101Q, N261T mutant using Leu-p-nitroanilide as a substrate after 30 mins

- solubility [1]: soluble
- IC50 [2]: 30 µM
SMILES: NC(Cc1ccccc1)C(=O)NC(CCCCNC(=O)OCc1ccccc1)C(=O)NO (configuration not stated)

Reference: ChEMBL document CHEMBL1773064, “Engineered Thermoplasma acidophilum factor F3 mimics human aminopeptidase N (APN) as a target for anticancer drug development” (Bioorg Med Chem, 2011)
